For orientation: TD50 means the dose at which the toxic effect under study appears in half of the subjects. What is called ED50 is the dose at which the effect has come halfway, by size or by number of responders.

Molecules are shown by their SMILES. Activity calls are given as the source filed them. No cut-off for these calls is given here. Some results are limits rather than exact numbers.

Series [1] concerns Mus musculus. Description: Anticonvulsant activity in Mus musculus Kunming (mouse) assessed as protection against subcutaneous pentylenetetrazole-induced seizures at 100 mg/kg, ip at 0.5 hr. Type of series: functional, organism-based. Set-up: dose 100 mg/kg.
Series [2] has as its system Mus musculus. Description: Anticonvulsant activity in Mus musculus Kunming (mouse) assessed as protection against maximal electroshock-induced seizures at 100 mg/kg, ip at 4 hr. The class given is functional, organism-based. Also noted: dose 100 mg/kg.
In series [3] the test system is Mus musculus. Description: Neurotoxicity in Mus musculus Kunming (mouse) assessed as minimal motor impairment at 300 mg/kg, ip at 4 hr by rotarod test. Type of series: toxicity, organism-based. Also noted: dose 300 mg/kg, route intraperitoneal. Particulars: in vivo. For orientation: In the rotarod test animals must keep their balance on a rotating rod.
In series [4] the test system is Mus musculus. As to the kind of experiment: Anticonvulsant activity in Mus musculus Kunming (mouse) assessed as protection against subcutaneous pentylenetetrazole-induced seizures at 100 mg/kg, ip at 4 hr. Type of series: functional, organism-based. Set-up: dose 100 mg/kg.
In series [5] the test system is Mus musculus. Description: Neurotoxicity in Mus musculus Kunming (mouse) assessed as minimal motor impairment at 300 mg/kg, ip at 0.5 hr by rotarod test. Type of series: toxicity, organism-based. Set-up: dose 300 mg/kg, route intraperitoneal. Particulars: in vivo.
Series [6] is described as follows: Neurotoxicity in ip dosed Mus musculus Kunming (mouse) assessed as minimal motor impairment at 0.5 hr by rotarod test. Type of series: toxicity, organism-based. Conditions: in vivo.
For series [7], the system named is Mus musculus. Description: Anticonvulsant activity in ip dosed Mus musculus Kunming (mouse) assessed as protection against maximal electroshock-induced seizures at 0.5 hr. Type of series: functional. In general terms: In the maximal electroshock model the usual endpoint is tonic extension of the hind limbs.
The test system of series [8] is Mus musculus. Description: Anticonvulsant activity in Mus musculus Kunming (mouse) assessed as protection against maximal electroshock-induced seizures at 100 mg/kg, ip at 0.5 hr. Set-up: dose 100 mg/kg. Type of series: functional, organism-based.
For series [9], the species on record is Mus musculus. As to the kind of experiment: Protective index, ratio of TD50 for Mus musculus Kunming (mouse) to ED50 for inhibition of maximal electroshock-induced seizure in Mus musculus Kunming (mouse). Type of series: functional.
The subject of series [10] is Mus musculus. Description: Anticonvulsant activity in ip dosed Mus musculus Kunming (mouse) assessed as protection against subcutaneous pentylenetetrazole-induced seizures at 0.5 hr. Type of series: functional.
The test system of series [11] is Mus musculus. Description: Protective index, ratio of TD50 for Mus musculus Kunming (mouse) to ED50 for inhibition of maximal subcutaneous pentylenetetrazole-induced seizure in Mus musculus Kunming (mouse). The class given is functional.

Consider `Fc1cccc(-c2nncn2-c2ccc3nc(-c4ccccc4)oc3c2)c1`, for which the result with Mus musculus [1], with Mus musculus [2] and with Mus musculus [4] was inactive. Also, the Activity result with Mus musculus [3] and in the series with Mus musculus [5] was “Non-toxic” in each case.
Consider `CCc1nncn1-c1ccc2nc(-c3ccccc3)oc2c1`, for which the Activity result in the series on Mus musculus [3] was “Non-toxic”. In the series on Mus musculus [4], the outcome was inactive.
Turning to `COc1cccc(-c2nncn2-c2ccc3nc(-c4ccccc4)oc3c2)c1`, the TD50 at 0.5 h in series [6] was 249 mg/kg. Moreover, the result in the series on Mus musculus [1], in the series with Mus musculus [2] and in the series on Mus musculus [4] was inactive. In the series with Mus musculus [7], the ED50 worked out at 66.5 mg/kg. Moreover, the Activity result with Mus musculus [3] is on record as “Non-toxic”. The outcome in the series on Mus musculus [8] was Active. Moreover, the “Ratio TD50/ED50” value in the series filed under Mus musculus [9] is on record as 3.7.
As for `O=[N+]([O-])c1ccc(-c2nncn2-c2ccc3nc(-c4ccccc4)oc3c2)cc1`, the result with Mus musculus [1], in the series on Mus musculus [2], in the series with Mus musculus [4] and in the series on Mus musculus [8] was inactive.
Turning to `Cc1ccc(-c2nncn2-c2ccc3nc(-c4ccccc4)oc3c2)cc1`, the result in the series on Mus musculus [2] and in the series on Mus musculus [4] was inactive. Besides, in the series on Mus musculus [5], the Activity entry is “Toxic”.
For the molecule `COc1ccc(-c2nncn2-c2ccc3nc(-c4ccccc4)oc3c2)cc1`, the outcome in the series with Mus musculus [1], in the series with Mus musculus [2] and in the series with Mus musculus [4] was inactive. Also, the Activity entry with Mus musculus [3] and in the series with Mus musculus [5] was “Non-toxic” each time.
As for `Clc1ccccc1-c1nncn1-c1ccc2nc(-c3ccccc3)oc2c1`, the result in the series on Mus musculus [2], in the series with Mus musculus [4] and in the series with Mus musculus [8] was inactive. Besides, the Activity entry with Mus musculus [3] and in the series on Mus musculus [5] was “Non-toxic” each time.
Consider `Fc1ccc(-c2nncn2-c2ccc3nc(-c4ccccc4)oc3c2)cc1`, for which the outcome in the series with Mus musculus [1], in the series with Mus musculus [2] and with Mus musculus [4] was inactive. The Activity result in the series on Mus musculus [3] and in the series on Mus musculus [5] was “Non-toxic” each time.
On to `Clc1cccc(-c2nncn2-c2ccc3nc(-c4ccccc4)oc3c2)c1`, for which the outcome in the series with Mus musculus [2] and in the series on Mus musculus [4] was inactive. In addition, the Activity entry with Mus musculus [3] is listed as “Non-toxic”; in the series on Mus musculus [5], “Toxic”.
For the molecule `NC(=O)N1c2ccccc2C=Cc2ccccc21` [CARBAMAZEPINE], the ED50 in the series with Mus musculus [10] was over 100 mg/kg. Moreover, the entries for the “Ratio TD50/ED50” value in the series listed under Mus musculus [9] and with Mus musculus [11] were 6.4 and under 1.3, respectively.
With `Clc1ccc(-c2nncn2-c2ccc3nc(-c4ccccc4)oc3c2)cc1`, the outcome in the series with Mus musculus [1], in the series with Mus musculus [2] and with Mus musculus [4] was inactive. The Activity entry in the series on Mus musculus [3] and in the series with Mus musculus [5] was “Non-toxic” in each case.
`Cc1nncn1-c1ccc2nc(-c3ccccc3)oc2c1`: the TD50 at 0.5 h in series [6] was determined as 167 mg/kg. The ED50 came out at 26.5 mg/kg in the series with Mus musculus [7] and 75.6 mg/kg with Mus musculus [10]. Further, the result in the series with Mus musculus [2] and in the series with Mus musculus [8] was Active. For the same molecule, the outcome in the series with Mus musculus [4] was inactive. In addition, the Activity entry with Mus musculus [5] is recorded as “Toxic”. Moreover, the “Ratio TD50/ED50” value in the series filed under Mus musculus [9] amounted to 6.3; in the series with Mus musculus [11], 2.3.
For the molecule `CCCc1nncn1-c1ccc2nc(-c3ccccc3)oc2c1`, the result in the series with Mus musculus [2] and in the series on Mus musculus [4] was inactive. Moreover, the Activity entry in the series on Mus musculus [3] was “Non-toxic”.
In the case of `CCCCCCCCCc1nncn1-c1ccc2nc(-c3ccccc3)oc2c1`, the outcome with Mus musculus [2], with Mus musculus [4] and with Mus musculus [8] was inactive. Besides, the Activity entry in the series on Mus musculus [3] and in the series on Mus musculus [5] was “Toxic” each time.
As for `c1ccc(-c2nc3ccc(-n4cnnc4-c4ccccc4)cc3o2)cc1`, the TD50 at 0.5 h in series [6] was determined as 266 mg/kg. In addition, in the series with Mus musculus [7], the ED50 was determined as 65.4 mg/kg. Further, the result in the series on Mus musculus [4] was inactive. The result with Mus musculus [8] was Active. The “Ratio TD50/ED50” value in the series filed under Mus musculus [9] is recorded as 4.1.
Regarding `c1ccc(-c2nc3ccc(-n4cnnc4)cc3o2)cc1`, the TD50 at 0.5 h in [6] was determined as 285 mg/kg. Also, the result with Mus musculus [1] and with Mus musculus [4] was inactive. Moreover, the ED50 worked out at 29.5 mg/kg in the series on Mus musculus [7] and 69.8 mg/kg in the series on Mus musculus [10]. Further, the outcome with Mus musculus [2] and with Mus musculus [8] was Active. In addition, the Activity entry with Mus musculus [3] is “Non-toxic”. The results for the “Ratio TD50/ED50” value in the series filed under Mus musculus [9] and with Mus musculus [11] were 9.7 and 4.1, respectively.
As for `CCCCCc1nncn1-c1ccc2nc(-c3ccccc3)oc2c1`, the result in the series on Mus musculus [1], in the series on Mus musculus [2], in the series with Mus musculus [4] and in the series with Mus musculus [8] was inactive.
On to `CCCCc1nncn1-c1ccc2nc(-c3ccccc3)oc2c1`, for which the result with Mus musculus [2] and in the series on Mus musculus [4] was inactive. Also, the Activity result in the series on Mus musculus [3] and with Mus musculus [5] was “Non-toxic” in each case.

For the origin of these results see ChEMBL document CHEMBL3045922, “Synthesis of 6-(3-substituted-4H-1,2,4-triazol-4-yl)-2-phenylbenzo[d]oxazoles as potential anticonvulsant agents” (Med Chem Res, 2010).
